In brackets after ≈: the same amount, converted by molar mass. Like-named read-outs stand apart in the source and are kept apart here.
Key:
[1] = test system: E. coli (MDR) b clinical isolate; experiment: MIC, agar dilution method, E. coli MDR b; format: cell-based; conditions: for MIC (antibiotic susceptibility) E. coli MDRb: Table S3, unpublished data of microbiology unit, Beni Suef general hospital, same procedure; for MIC: Escherichia coli, read-out: MIC E. coli (MDR) b
Method: (§1) The selected top-scoring hits were evaluated for their antibacterial effect against two clinical multidrug-resistant strains of enterotoxigenic E. coli. Both isolates were isolated as clinical samples from Beni Suef general hospital, Beni Suef, Egypt. […] MRSA (ATCC 25529) and VRSA (clinical isolate from Beni Suef general hospital, Beni Suef, Egypt) were also used to further evaluate the tested compounds against resistant Gram-positive bacteria.
(§2) Minimum inhibitory concentrations for the test compounds were analyzed following the standard agar dilution method using Meuller-Hinton (MH) agar medium against different Gram-negative and positive bacteria (Table 1). Firstly, the tested compounds were prepared as a stock suspension with a 10 mg/mL final concentration in DMSO. Subsequently, the prepared stocks were diluted in 10 mL molten soft agar (0.5% agar) to obtain a concentration range from 1–64 µg/mL, then mixed and poured over a surface of MH agar (2% agar) plates and left for solidification. Finally, exponentially grown (O.D 600 nm of 0.6) test strains (Table 1) were diluted to a final density of 10^6 CFU/mL in MH broth and spotted (1 µL/spot) over the soft agar. Then, the plates were left for drying and incubated at 37 °C for 18–20 h. Controls were conducted using DMSO seeded soft agar. At the end of the experiment, the MIC for each compound was identified as the minimum concentration that inhibited the growth of the tested strain. The experiments were carried out in triplicates.

[2] = test system: E. coli (MDR) a clinical isolate; experiment: MIC, agar dilution method, E. coli MDR a; format: cell-based; conditions: for MIC: Escherichia coli; for MIC (antibiotic susceptibility) E. coli MDRa: Table S3, unpublished data of microbiology unit, Beni Suef general hospital, same procedure
Method: as §1, §2

VRSA (clinical isolate) = experiment: MIC, agar dilution method, VRSA; format: cell-based, S. aureus; conditions: for MIC: Staphylococcus aureus, VRSA, read-out: MIC VRSA
Method: as §1, §2

MRSA (ATCC 25529) = experiment: MIC, agar dilution method, MRSA; format: cell-based, S. aureus; conditions: Staphylococcus aureus, read-out: MIC MRSA
Method: as §1, §2

[3] = target: T1, E. coli DAla:D-Ala ligase (Ddl-B) (Escherichia coli, UniProt P07862); experiment: Ddl-B enzymatic activity assay (inorganic phosphate, absorbance 650 nm); format: biochemical
T1 construct: purchased ProFoldin DDA100KE
Method: (§3) Ddl-B and Gyr-B activity assays were performed according to the manufacturer protocols (ProFoldin, Catalogue No. DDA100KE, and Inspiralis, Catalogue No. ATPG001, UK).
Ddl-B enzymatic activity assay is based on measuring the inorganic phosphate generated from the D-Alanine: D-Alanine ligation reaction. The inorganic phosphate is detected by absorbance at 650 nm. The assay reactions and detection were performed by using a 96-well plate. Different concentrations of the test compounds and the reference inhibitor D-cycloserine were prepared in DMSO (from 10 µM to 1000 µM). […] Thereafter, 33 μL of 10× enzyme substrate was prepared by mixing 3.3 μL of 100× enzyme substrate with 29.7 μL of water. Finally, 27 μL of the premix with 3 μL of the 10× enzyme substrate in each well were mixed. After 60 min of incubation at 37 °C, 45 μL of MPA3000 dye was added into the 30 μL of the reaction mixture. After 5 min of incubation, absorbance was measured at 650 nm.

[4] = Cellular toxicity against normal fibroblasts WI-38 (MTT); format: cell-based; conditions: human
Method: All selected top-scoring compounds were tested for their cellular toxicity against human fibroblasts cell line (WI-38). Cell line (WI-38; ATCC: CCL-75) was maintained in earth RPMI 1640 medium comprising 10% heat-inactivated fetal bovine serum (FBS) and grown at 37 °C and 5% CO2. The cell line was seeded on 96-well cell culture plates (2 × 10^4 cells/well). Cells were stimulated with tested compounds at different concentrations (from 1 to 50 µM) overnight in triplicates. Doxorubicin was used as a positive control. Cell viability was assessed by MTT assay. To normalize cell viability values, each plate included a triplicate of untreated cells considered as 100% viability, and a triplicate of cells treated with a cytotoxic mixture (200 ng/mL TNF, 200 ng/mL CD95L, 200 ng/mL TRAIL, 5 μg/mL CHX, 1% (w/v) sodium azide […]) considered as 0% viability. All other viability values were normalized according to the averages of these triplicates and analyzed by the Graph Pad Prism 5 software (La Jolla, CA, USA).

[5] = target: T2, E. coli gyrase B43 domain (Gyr-B) (Escherichia coli, UniProt P0AES6); experiment: biochemical; format: biochemical
T2 construct: 20 μL of the enzyme (E. coli gyrase B43 domain; 20 μM concentration); purchased Inspiralis ATPG001
Method: as §3
Gyr-B assay measured the capability of the tested compounds to hinder the ATPase activity of Gyr-B subunits. This assay links the hydrolysis of ATP by gyrase to the conversion of NADH to NAD^+, which can be measured by a change in absorbance at 340 nm. The assay reactions and detection were performed using a 96-well plate. […] First, the assay mix was prepared by mixing 20 μL of the assay buffer (50 mM Tris.HCl (pH 7.5), 1 mM EDTA, 5 mM magnesium chloride, 5 mM DTT, 10% (w/v) glycerol), 1 μL phosphoenolpyruvate (80 mM in water), 1.5 μL pyruvate kinase/lactate dehydrogenase stock, 2 μL NADH (20 mM in water), and 58.8 μL water. Thereafter, 63.3 μL of assay mix and 10 μL of the test compound solution and 20 μL of the enzyme (E. coli gyrase B43 domain; 20 μM concentration) were added into the wells and mixed by pipetting. After incubation for 10 min at 25 °C, 6.7 uL of ATP (30 mM) was added to each well. After 60 min of incubation at 25 °C, the absorbance was measured at 340 nm.

[6] = test system: tested bacterial strains (E. coli MDR, MRSA, VRSA); experiment: Antibacterial evaluation, tested bacterial strains taken together; format: cell-based; conditions: for MIC: Escherichia coli, E. coli MDR, MRSA, VRSA
Method: as §1, §2

[7] = range 1-64 µg/mL, 37 °C, 18-20 h, read-out: MIC E. coli (MDR) a
[8] = range 1-64 µg/mL, 37 °C, 18-20 h
[9] = WI-38, 1 to 50 µM overnight, MTT, read-out: CC50
[10] = 10-1000 µM tested, read-out: IC50 Ddl-B
[11] = WI-38 normal fibroblast cells, WI-38, 1 to 50 µM overnight, MTT, read-out: CC50
[12] = MDR isolates a and b not distinguished, read-out: MIC E. coli

Structure (SMILES)	MIC [2, 7] [µg/mL]	MIC (VRSA (clinical isolate); [8]) [µg/mL]	MIC [1, 8] [µg/mL]	MIC (MRSA (ATCC 25529); [8]) [µg/mL]	Ddl-B inhibition in words [3]	IC50 [5] [µM]	Ki [5] [µM]	also measured
NCC[C@H](O)C(=O)N[C@@H]1C[C@H](N)[C@@H](O[C@H]2O[C@H](CN)[C@@H](O)[C@H](O)[C@H]2O)[C@H](O)[C@H]1O[C@H]1O[C@H](CO)[C@@H](O)[C@H](N)[C@H]1O [Amikacin, reference compound]	–	–	–	–	–	–	–	MIC (antibiotic susceptibility) E. coli MDRb [1]: 8 µg/mL (≈ 13.7 µM)
CO[C@@H]1[C@@H](OC(N)=O)[C@@H](O)[C@H](Oc2ccc3c(O)c(NC(=O)c4ccc(O)c(CC=C(C)C)c4)c(=O)oc3c2C)OC1(C)C [Novobiocin, reference compound]	64 (≈ 104 µM)	1 (≈ 1.63 µM)	64 (≈ 104 µM)	1 (≈ 1.63 µM)	–	–	–	–
C[C@H]1COc2c(N3CCN(C)CC3)c(F)cc3c(=O)c(C(=O)O)cn1c23 [Levofloxacin, reference compound]	–	–	–	–	–	–	–	MIC (antibiotic susceptibility) E. coli MDRa [2]: 16 µg/mL (≈ 44.3 µM)
O=C(O)c1cc(O)c2c(c1)C(=O)c1cccc(O)c1C2=O [Rhein]	8 (≈ 28.1 µM)	8 (≈ 28.1 µM)	2 (≈ 7.04 µM)	> 64	more potent	11.5 ± 1.2	7.33 ± 0.9	IC50 [3]: 281 ± 6.1 µM; Ki [3]: 133 ± 2.3 µM; CC50 [4, 9]: > 50 µM
Cc1cc(O)c2c(c1)C(=O)c1cccc(O)c1C2=O [Chrysophanol]	4 (≈ 15.7 µM)	4 (≈ 15.7 µM)	4 (≈ 15.7 µM)	> 64	more potent	1.5 ± 0.5	0.83 ± 0.2	IC50 [3]: 236 ± 8.9 µM; Ki [3]: 105 ± 4.9 µM; CC50 [4]: 48.1 ± 1.39 µM; MIC [6]: 2 to 4 µg/mL (≈ 7.87 to 15.7 µM)
CC(C)C1=CC2=CC[C@@H]3[C@](C)(CCC[C@@]3(C)C(=O)O)[C@H]2CC1 [Abietic acid]	64 (≈ 212 µM)	16 (≈ 52.9 µM)	16 (≈ 52.9 µM)	> 64	inactive	1.4 ± 0.4	0.77 ± 0.1	IC50 [3]: > 1000 µM; Ki [3]: > 1000 µM; CC50 [4]: > 50 µM; MIC [6]: 16 to 64 µg/mL (≈ 52.9 to 212 µM)
COc1cc(O)c2c(c1)C(=O)c1cc(C)cc(O)c1C2=O [Physcion]	2 (≈ 7.04 µM)	2 (≈ 7.04 µM)	2 (≈ 7.04 µM)	2 (≈ 7.04 µM)	more potent	10.9 ± 0.5	6.6 ± 0.9	IC50 [3, 10]: 244 ± 7.2 µM; Ki ([3]; read-out: Ki Ddl-B): 119 ± 9.1 µM; CC50 [4, 11]: > 50 µM
O=C1c2cccc(O)c2C(=O)c2cccc(O)c21 [Anthrarufin]	2 (≈ 8.33 µM)	> 64	2 (≈ 8.33 µM)	2 (≈ 8.33 µM)	comparable to the reference inhibitor D-cycloserine	6.93 ± 1.6	4.1 ± 1.6	IC50 [3, 10]: 350 ± 7.4 µM; Ki ([3]; read-out: Ki Ddl-B): 345 ± 10.1 µM; CC50 [4, 11]: 29.7 ± 0.76 µM; MIC [2, 12]: 2 µg/mL (≈ 8.33 µM); MIC VRSA (VRSA (clinical isolate); [8]): >64 µg/mL; Gyr-B inhibition in words [5]: moderate activity
CC(C)(O/N=C(\C(=O)N[C@@H]1C(=O)N2C(C(=O)[O-])=C(C[n+]3ccccc3)CS[C@H]12)c1csc(N)n1)C(=O)O [Ceftazidime, reference compound]	–	–	–	–	–	–	–	MIC (antibiotic susceptibility) E. coli MDRa [2]: 32 µg/mL (≈ 58.5 µM); MIC (antibiotic susceptibility) E. coli MDRb [1]: 16 µg/mL (≈ 29.3 µM)
N[C@@H]1CON=C1O [D-cycloserine, reference compound]	16 (≈ 157 µM)	32 (≈ 313 µM)	16 (≈ 157 µM)	32 (≈ 313 µM)	–	–	–	IC50 [3, 10]: 362 µM; Ki ([3]; read-out: Ki Ddl-B): 118 ± 11.7 µM
O=C1c2ccccc2C(=O)c2c1ccc(O)c2O [Alizarin]	–	–	–	–	moderately inhibited	17.9 ± 1.2	10.4 ± 1.1	IC50 [3, 10]: 468 ± 6.5 µM; Ki ([3]; read-out: Ki Ddl-B): 220 ± 4.3 µM; CC50 [4, 9]: 25.9 ± 0.69 µM; MIC ([2]; read-out: MIC E. coli): 64 µg/mL (≈ 266 µM); MIC ([2]; read-out: MIC E. coli (MDR) a): 64 µg/mL (≈ 266 µM); MIC (VRSA (clinical isolate)): > 64 µg/mL; MIC VRSA (VRSA (clinical isolate); [8]): >64 µg/mL; MIC [1]: > 64 µg/mL; Gyr-B inhibition in words [5]: moderately inhibited; MIC (MRSA (ATCC 25529)): 64 µg/mL (≈ 266 µM)
O=C1c2ccccc2C(=O)c2c(O)ccc(O)c21 [Quinizarin]	64 (≈ 266 µM)	16 (≈ 66.6 µM)	64 (≈ 266 µM)	64 (≈ 266 µM)	moderately inhibited	38.8 ± 2.3	17.9 ± 1.4	IC50 [3, 10]: 515 ± 8.3 µM; Ki ([3]; read-out: Ki Ddl-B): 230 ± 8.3 µM; CC50 [4, 11]: 20.1 ± 0.56 µM; MIC [2, 12]: 64 µg/mL (≈ 266 µM); Gyr-B inhibition in words [5]: moderately inhibited
COc1cccc2c1C(=O)c1c(O)c3c(c(O)c1C2=O)C[C@@](O)(C(=O)CO)C[C@@H]3O[C@H]1C[C@H](N)[C@H](O)[C@H](C)O1 [Doxorubicin, reference compound]	–	–	–	–	–	–	–	CC50 [4]: 26.2 ± 0.61 µM
CC1(C)S[C@@H]2[C@H](NC(=O)[C@H](N)c3ccccc3)C(=O)N2[C@H]1C(=O)O [Ampicillin, reference compound]	–	–	–	–	–	–	–	MIC (antibiotic susceptibility) E. coli MDRa [2]: > 64 µg/mL; MIC (antibiotic susceptibility) E. coli MDRb [1]: > 64 µg/mL
O=C1c2ccccc2C(=O)c2ccccc21 [Anthraquinone]	> 64	64 (≈ 307 µM)	> 64	> 64	inactive	> 100	–	Antibacterial activity in words, all tested bacteria [6]: inactive; Gyr-B inhibition in words [5]: inactive
COc1ccc(Cc2nccc3cc(OC)c(OC)cc23)cc1OC [Papaverine]	> 64	> 64	> 64	> 64	–	> 100	–	CC50 [4]: 36.8 ± 0.93 µM; Antibacterial activity in words, all tested bacteria [6]: inactive
CC[C@H]1OC(=O)[C@H](C)[C@@H](O[C@H]2C[C@@](C)(OC)[C@@H](O)[C@H](C)O2)[C@H](C)[C@@H](O[C@@H]2O[C@H](C)C[C@H](N(C)C)[C@H]2O)[C@](C)(O)C[C@@H](C)CN(C)[C@H](C)[C@@H](O)[C@]1(C)O [Azithromycin, reference compound]	–	–	–	–	–	–	–	MIC (antibiotic susceptibility) E. coli MDRb [1]: 16 µg/mL (≈ 21.4 µM)
CO/N=C(\C(=O)N[C@@H]1C(=O)N2C(C(=O)O)=C(COC(C)=O)CS[C@H]12)c1csc(N)n1 [Cefotaxime, reference compound]	–	–	–	–	–	–	–	MIC (antibiotic susceptibility) E. coli MDRa [2]: 32 µg/mL (≈ 70.3 µM); MIC (antibiotic susceptibility) E. coli MDRb [1]: 64 µg/mL (≈ 141 µM)

— article PMC8778091, “In Silico-Based Discovery of Natural Anthraquinones with Potential against Multidrug-Resistant E. coli” (Pharmaceuticals, 2022)
